# How the values were obtained:
# [1] = molecular target: Voltage-gated inwardly rectifying potassium channel KCNH2 (Homo sapiens, UniProt Q12809)
# [2] = in vitro; conditions: human, liver microsomes
# [3] = physchem; conditions: 1-octanol/phosphate buffered saline, pH 7.4
# [4] = Apparent permeability across apical to basolateral side in human Caco-2 cells; assay type: ADME, cell-based
# [5] = Intrinsic permeability of compound from apical to basolateral side in human Caco2 cells; assay type: ADME, cell-based; conditions: Caco-2
# [6] = cells; conditions: Homo sapiens, Th17, 96 h
# [7] = rat, in vivo, po, 1 mg/kg
# [8] = in vivo; conditions: Han Wistar, rat, po, 1 mg/kg
# [9] = in vivo; conditions: Han Wistar, rat, po, 1 mg/kg; remark: listed apart in the source
# [10] = in vivo; conditions: Han Wistar, rat, po, 1 mg/kg; remark: listed apart in the source
# [11] = in vitro; conditions: rat, hepatocytes
# [12] = in vitro; conditions: human, hepatocytes
# Sequence of Voltage-gated inwardly rectifying potassium channel KCNH2 (Q12809 whole entry): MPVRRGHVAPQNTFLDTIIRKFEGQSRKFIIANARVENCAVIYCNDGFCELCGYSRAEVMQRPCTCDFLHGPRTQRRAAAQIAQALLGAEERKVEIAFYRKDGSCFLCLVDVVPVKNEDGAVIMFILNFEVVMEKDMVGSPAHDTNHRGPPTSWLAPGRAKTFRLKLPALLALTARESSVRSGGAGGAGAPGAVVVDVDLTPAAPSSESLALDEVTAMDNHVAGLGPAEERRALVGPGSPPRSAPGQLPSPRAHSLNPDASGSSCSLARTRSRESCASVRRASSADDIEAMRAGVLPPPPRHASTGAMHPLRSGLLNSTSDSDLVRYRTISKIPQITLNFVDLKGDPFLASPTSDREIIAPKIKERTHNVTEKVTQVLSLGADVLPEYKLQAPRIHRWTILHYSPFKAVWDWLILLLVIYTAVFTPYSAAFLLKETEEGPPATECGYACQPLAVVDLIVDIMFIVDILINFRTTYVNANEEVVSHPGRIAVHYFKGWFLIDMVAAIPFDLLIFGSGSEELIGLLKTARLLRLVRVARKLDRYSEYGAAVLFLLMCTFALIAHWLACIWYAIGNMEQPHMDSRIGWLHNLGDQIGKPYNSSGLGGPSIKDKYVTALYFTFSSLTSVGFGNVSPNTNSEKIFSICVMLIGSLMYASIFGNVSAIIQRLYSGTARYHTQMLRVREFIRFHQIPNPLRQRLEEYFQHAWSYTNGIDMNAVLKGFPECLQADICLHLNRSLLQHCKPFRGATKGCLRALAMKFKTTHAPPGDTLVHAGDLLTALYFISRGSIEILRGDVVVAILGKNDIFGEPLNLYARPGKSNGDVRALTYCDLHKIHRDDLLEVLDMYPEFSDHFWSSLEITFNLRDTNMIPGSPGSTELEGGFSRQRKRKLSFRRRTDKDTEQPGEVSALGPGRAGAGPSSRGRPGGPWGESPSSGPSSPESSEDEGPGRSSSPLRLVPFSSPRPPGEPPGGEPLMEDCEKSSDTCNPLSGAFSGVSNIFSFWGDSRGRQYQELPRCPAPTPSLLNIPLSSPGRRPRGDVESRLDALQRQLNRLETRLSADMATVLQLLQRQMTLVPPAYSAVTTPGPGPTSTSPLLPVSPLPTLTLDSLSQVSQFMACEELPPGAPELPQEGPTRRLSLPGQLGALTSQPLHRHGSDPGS
Structure (SMILES),microsomal CLint [2] [µL/min/mg],logD [3],other results
CCS(=O)(=O)c1ccc(C(NC(=O)Cc2ccccn2)C(=O)Nc2ccc(C(O)(C(F)(F)F)C(F)(F)F)cc2)nc1 (stereo not given),< 3,2.8,IC50 [1]: 4.1 µM
COCC(=O)N1Cc2cc(S(=O)(=O)CC3CC3)ccc2C1C(=O)Nc1ccc(C(O)(C(F)(F)F)C(F)(F)F)cc1 (stereo not given),19,3.2,
CNC(=O)N1Cc2cc(S(C)(=O)=O)ccc2C1C(=O)Nc1ccc(C(O)(C(F)(F)F)C(F)(F)F)cc1 (stereo not given),< 3,2.5,
CCS(=O)(=O)c1ccc(C(NC(=O)Cc2nccs2)C(=O)Nc2ccc(C(O)(C(F)(F)F)C(F)(F)F)cc2)nc1 (stereo not given),16,3.1,Papp A→B [4]: 25 nm/s; Pm [5]: 11; IC50 [1]: 5.5 µM
CCS(=O)(=O)c1ccc(C(CC(=O)N(C)C)C(=O)Nc2ccc(C(O)(C(F)(F)F)C(F)(F)F)cc2)cc1 (stereo not given),5,3.1,Papp A→B [4]: 14 nm/s; Pm [5]: 24; IC50 [6]: 0.091 µM
CCS(=O)(=O)c1ccc([C@H](CC(=O)NC)C(=O)Nc2ccc(C(O)(C(F)(F)F)C(F)(F)F)cc2)cc1,< 3,3.1,IC50 [1]: > 40 µM
CC(=O)N1Cc2cc(S(=O)(=O)NC3CC3)ccc2C1C(=O)Nc1ccc(C(O)(C(F)(F)F)C(F)(F)F)cc1 (stereo not given),11,3.2,
CS(=O)(=O)c1ccc2c(c1)CN(C(=O)CO)C2C(=O)Nc1ccc(C(O)(C(F)(F)F)C(F)(F)F)cc1 (stereo not given),< 3,1.9,
CC(=O)N1Cc2cc(S(=O)(=O)CCO)ccc2C1C(=O)Nc1ccc(C(O)(C(F)(F)F)C(F)(F)F)cc1 (stereo not given),3.1,2.1,
COC(=O)N1Cc2cc(S(C)(=O)=O)ccc2C1C(=O)Nc1ccc(C(O)(C(F)(F)F)C(F)(F)F)cc1 (stereo not given),< 3,2.9,
CCS(=O)(=O)c1ccc2c(c1)CN(C(=O)C1CCO1)C2C(=O)Nc1ccc(C(O)(C(F)(F)F)C(F)(F)F)cc1 (stereo not given),< 3,2.6,
CNS(=O)(=O)c1ccc2c(c1)CN(C(=O)C1CCO1)C2C(=O)Nc1ccc(C(O)(C(F)(F)F)C(F)(F)F)cc1 (stereo not given),< 3,2.6,
CNS(=O)(=O)c1ccc2c(c1)CN(C=O)C2C(=O)Nc1ccc(C(O)(C(F)(F)F)C(F)(F)F)cc1 (stereo not given),6.8,2.7,
CC(=O)N1Cc2cc(S(=O)(=O)CC3CC3)ccc2C1C(=O)Nc1ccc(C(O)(C(F)(F)F)C(F)(F)F)cc1 (stereo not given),< 3,3.4,
CC(=O)N1Cc2cc(S(=O)(=O)CC3(F)CC3)ccc2C1C(=O)Nc1ccc(C(O)(C(F)(F)F)C(F)(F)F)cc1 (stereo not given),7.9,3.1,
CC(=O)N1CCc2cc(S(C)(=O)=O)ccc2C1C(=O)Nc1ccc(C(O)(C(F)(F)F)C(F)(F)F)cc1 (racemic),< 3,2.9,
CC(=O)NC(C(=O)Nc1ccc(C(O)(C(F)(F)F)C(F)(F)F)cc1)c1ccc(S(C)(=O)=O)cc1 (racemic),< 3,2.7,
CC(=O)N1Cc2cc(S(C)(=O)=O)ccc2C1C(=O)Nc1ccc(C(O)(C(F)(F)F)C(F)(F)F)cc1 (racemic),< 3,2.4,Vdss [7]: 2 L/kg; CL/F [8]: 0.378 L/h/kg; half-life [9]: 4.9 h; bioavailability [10]: 40%; hepatocyte CLint [11]: < 1 µL/min/1e6 cells; hepatocyte CLint [12]: < 1 µL/min/1e6 cells

# Source: ChEMBL document CHEMBL4831524, “AZD0284, a Potent, Selective, and Orally Bioavailable Inverse Agonist of Retinoic Acid Receptor-Related Orphan Receptor C2” (J Med Chem, 2021)
